Reference: US20240376099A1, “COMPOUNDS AND COMPOSITIONS AS INHIBITORS OF ENDOSOMAL TOLL-LIKE RECEPTORS” (Novartis AG, priority 2016, published 2024)

molecular target: T1, TLR7 (Homo sapiens, UniProt Q9NYK1); test: huPBMC TLR7 Antagonist IFNα Assay; format: cell-based; settings: human PBMCs stimulated with ssRNA40 10 μg/mL (DOTAP), 14-16 hrs; IFNα2b AlphaLISA read-out
T1 construct: Fresh blood was collected from normal human donors; endogenous in cells; host or cells: human PBMCs from fresh donor blood
T1 sequence (Q9NYK1 27-1049): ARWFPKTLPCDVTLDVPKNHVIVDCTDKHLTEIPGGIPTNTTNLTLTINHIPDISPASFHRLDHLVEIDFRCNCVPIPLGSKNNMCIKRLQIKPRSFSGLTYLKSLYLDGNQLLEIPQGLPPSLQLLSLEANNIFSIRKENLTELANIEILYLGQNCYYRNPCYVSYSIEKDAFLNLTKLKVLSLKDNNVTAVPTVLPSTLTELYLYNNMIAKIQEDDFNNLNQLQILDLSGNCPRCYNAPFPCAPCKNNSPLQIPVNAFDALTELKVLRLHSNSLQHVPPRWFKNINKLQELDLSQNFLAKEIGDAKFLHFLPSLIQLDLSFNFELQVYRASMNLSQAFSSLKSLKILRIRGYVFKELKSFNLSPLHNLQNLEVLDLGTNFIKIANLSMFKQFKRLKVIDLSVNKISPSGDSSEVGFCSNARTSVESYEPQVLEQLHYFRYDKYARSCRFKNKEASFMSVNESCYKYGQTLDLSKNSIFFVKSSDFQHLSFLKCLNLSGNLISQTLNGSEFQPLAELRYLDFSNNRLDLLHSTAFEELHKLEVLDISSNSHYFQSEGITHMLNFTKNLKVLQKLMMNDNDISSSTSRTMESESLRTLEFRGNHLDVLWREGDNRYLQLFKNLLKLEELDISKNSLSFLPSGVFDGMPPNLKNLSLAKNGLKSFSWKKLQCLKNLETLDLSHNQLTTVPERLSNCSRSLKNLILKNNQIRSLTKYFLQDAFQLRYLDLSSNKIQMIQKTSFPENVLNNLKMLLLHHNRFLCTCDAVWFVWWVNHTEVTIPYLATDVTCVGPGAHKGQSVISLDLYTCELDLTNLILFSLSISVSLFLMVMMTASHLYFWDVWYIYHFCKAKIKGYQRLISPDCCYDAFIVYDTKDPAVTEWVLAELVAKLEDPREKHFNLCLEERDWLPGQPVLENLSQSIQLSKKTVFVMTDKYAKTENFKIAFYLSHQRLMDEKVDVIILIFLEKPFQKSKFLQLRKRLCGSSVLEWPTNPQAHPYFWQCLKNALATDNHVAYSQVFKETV
Method in brief: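 Human PBMCs from fresh donor blood (150,000 cells/well) stimulated 14–16 h at 37 °C with DOTAP-complexed ssRNA40 (final 1 μg/ml for TLR8, 10 μg/mL for TLR7) or ODN2216 (final 0.3 μM, TLR9), 0.25% DMSO, ten-point 1/3 compound dilutions. Supernatant IL-6 read by HTRF (TLR8); IFNα by IFNα2b AlphaLISA (TLR7/TLR9).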

SMILES | IC50 [µM]
CCOCCN(CCOCC)C12CCC(Cn3nc(C)c4c3CCN(c3cc(C)nc5c3cnn5C)C4)(CC1)CC2 [compound 72, 4-((5-(1,6-dimethyl-1H-pyrazolo[3,4-b]pyridin-4-yl)-3-methyl-4,5,6,7-tetrahydro-1H-pyrazolo[4,3-c]pyridin-1-yl)methyl)-N,N-bis(2-ethoxyethyl)bicyclo[2.2.2]octan-1-amine] | 0.037
Cc1cc(N2CCc3c(c(C)nn3CC34CCC(N5C[C@@H](O)[C@@H](O)C5)(CC3)CC4)C2)c2cnn(C)c2n1 [compound 74, (3S,4R)-1-(4-((5-(1,6-dimethyl-1H-pyrazolo[3,4-b]pyridin-4-yl)-3-methyl-4,5,6,7-tetrahydro-1H-pyrazolo[4,3-c]pyridin-1-yl)methyl)bicyclo[2.2.2]octan-1-yl)pyrrolidine-3,4-diol] | 0.007
Cc1cc(N2CCc3c(c(C)nn3CC34CCC(N5CC[C@H](O)C5)(CC3)CC4)C2)c2cnn(C)c2n1 [compound 75, (S)-1-(4-((5-(1,6-dimethyl-1H-pyrazolo[3,4-b]pyridin-4-yl)-3-methyl-4,5,6,7-tetrahydro-1H-pyrazolo[4,3-c]pyridin-1-yl)methyl)bicyclo[2.2.2]octan-1-yl)pyrrolidin-3-ol] | 0.011
Cc1cc(N2CCc3c(c(C)nn3CC34CCC(N(C)C5CCC5)(CC3)CC4)C2)c2cnn(C)c2n1 [compound 79, N-cyclobutyl-4-((5-(1,6-dimethyl-1H-pyrazolo[3,4-b]pyridin-4-yl)-3-methyl-4,5,6,7-tetrahydro-1H-pyrazolo[4,3-c]pyridin-1-yl)methyl)-N-methylbicyclo[2.2.2]octan-1-amine] | 0.004
Cc1cc(N2CCc3c(c(C)nn3CC34CCC(N5C[C@H](O)[C@@H](O)C5)(CC3)CC4)C2)c2cnn(C)c2n1 [compound 80, (3S,4S)-1-(4-((5-(1,6-dimethyl-1H-pyrazolo[3,4-b]pyridin-4-yl)-3-methyl-4,5,6,7-tetrahydro-1H-pyrazolo[4,3-c]pyridin-1-yl)methyl)bicyclo[2.2.2]octan-1-yl)pyrrolidine-3,4-diol] | 0.002
Cc1nn(CC23CCC(N4CCCC4)(CC2)CC3)c2c1CN(c1ccnc(-c3ccccc3)c1)CC2 [compound 85, 3-methyl-5-(2-phenylpyridin-4-yl)-1-((4-(pyrrolidin-1-yl)bicyclo[2.2.2]octan-1-yl)methyl)-4,5,6,7-tetrahydro-1H-pyrazolo[4,3-c]pyridine] | 0.046
Cc1cc(N2CCc3c(c(C)nn3CC34CCC(N5CCCC5)(CC3)CC4)C2)c2ccncc2n1 [compound 86, 2-methyl-4-(3-methyl-1-((4-(pyrrolidin-1-yl)bicyclo[2.2.2]octan-1-yl)methyl)-6,7-dihydro-1H-pyrazolo[4,3-c]pyridin-5(4H)-yl)-1,7-naphthyridine] | 0.081
Cc1cc(N2CCc3c(c(C)nn3CCC34CCC(N)(CC3)CC4)C2)c2cnn(C)c2n1 [compound 91, 4-(2-(5-(1,6-dimethyl-1H-pyrazolo[3,4-b]pyridin-4-yl)-3-methyl-4,5,6,7-tetrahydro-1H-pyrazolo[4,3-c]pyridin-1-yl)ethyl)bicyclo[2.2.2]octan-1-amine] | 0.022
Cc1cc(N2CCc3c(c(C)nn3CC34CCC(N)(CC3)CC4)C2)c2ccnc(C)c2n1 [compound 92, 4-((5-(2,8-dimethyl-1,7-naphthyridin-4-yl)-3-methyl-4,5,6,7-tetrahydro-1H-pyrazolo[4,3-c]pyridin-1-yl)methyl)bicyclo[2.2.2]octan-1-amine] | 0.16
